The values below come from patent US11377469B2, “CD73 inhibitors” (ORIC Pharmaceuticals, Inc., priority 2017, dated 2022).

The term IC50 denotes the concentration that inhibits the measured activity by half. Lower therefore signals inhibition by little substance.

CD73, sequence (P21589 27-574): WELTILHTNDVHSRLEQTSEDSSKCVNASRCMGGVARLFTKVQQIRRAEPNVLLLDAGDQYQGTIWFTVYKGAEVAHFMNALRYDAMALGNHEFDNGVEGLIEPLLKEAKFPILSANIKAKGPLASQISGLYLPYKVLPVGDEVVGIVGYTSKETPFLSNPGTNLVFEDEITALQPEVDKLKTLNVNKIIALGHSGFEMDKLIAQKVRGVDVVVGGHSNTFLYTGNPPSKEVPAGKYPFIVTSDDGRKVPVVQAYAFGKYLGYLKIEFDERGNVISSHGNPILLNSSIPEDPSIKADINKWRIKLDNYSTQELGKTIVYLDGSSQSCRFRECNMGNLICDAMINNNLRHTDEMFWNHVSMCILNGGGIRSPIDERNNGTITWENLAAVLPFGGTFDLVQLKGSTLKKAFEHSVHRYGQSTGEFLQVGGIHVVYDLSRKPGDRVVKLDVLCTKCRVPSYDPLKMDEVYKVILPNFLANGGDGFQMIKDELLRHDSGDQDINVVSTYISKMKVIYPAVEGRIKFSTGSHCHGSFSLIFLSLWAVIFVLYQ

The assay has as its target CD73 (Homo sapiens (Human), UniProt P21589). Briefly: Biochemical Assay (CD73 inhibition, AMP hydrolysis, Malachite Green readout). The settings on record: CD73 0.3208 nM, AMP 15 μM, Tris-HCl pH 7.4, Malachite Green absorbance. As to the method: Example A1: Biochemical Assay
Assay Reaction Conditions
• Assay Volume: 70 μl • Reaction Volume: 50 μl • CD73: 0.3208 nM • AMP: 15 μM • Assay Buffer: 2 5 mM Tris-HCL, pH 7.4, 0.01% Brij-35, 0.01% BSA, 5 mM MgCl2 Assay Procedure:
Made dose titration of testing compounds in assay buffer, 10 points ½ log titrations in duplicates starting at 100 μM.
Added 25 μl of CD73 to each well for a final concentration of 320 pM.
Incubated at RT for 15 min.
Added 25 μl of AMP to each well for a final concentration of 15 μM.
Incubated at RT for 10 min.
Added 10 μl of Malachite Green Reagent A, incubate at RT for 10 min.
Added 10 μl of Malachite Green Reagent B, incubate at RT for 45 min. […]
The ability of the compounds disclosed herein to inhibit CD73 activity was quantified and the respective IC50 values were determined. Table 1 provides the biochemical IC50 values of compounds disclosed herein.
As to `O=P(O)(O)CS(=O)(=O)C[C@H]1O[C@@H](n2nnc3c(NCc4ccc(Cl)cc4)nc(Cl)nc32)[C@H](O)[C@@H]1O` [Example 120, (((((2S,3S,4R,5R)-5-(5-chloro-7-((4-chlorobenzyl)amino)-3H[1,2,3]triazolo[4,5-d]pyrimidin-3-yl)-3,4-dihydroxytetrahydrofuran-2-yl)methyl)sulfonyl)methyl)phosphonic acid], the IC50 was ≤ 500 nM.

As for `O=P(O)(O)COCC[C@H]1O[C@@H](n2ncc3c(NCC4CC4)nc(Cl)nc32)[C@H](O)[C@@H]1O` [Example 85, ((2-((2R,3S,4R,5R)-5-(6-chloro-4-((cyclopropylmethyl)amino)-1H-pyrazolo[3,4-d]pyrimidin-1-yl)-3,4-dihydroxytetrahydrofuran-2-yl)ethoxy)methyl)phosphonic acid], the IC50 is > 1000 nM.

On to `C[C@H](Nc1nc(Cl)nc2c1cnn2[C@@H]1O[C@H](COCP(=O)(O)O)[C@@H](O)[C@H]1O)C1CC1` [Example 91, ((((2R,3S,4R,5R)-5-(6-chloro-4-(((S)-1-cyclopropylethyl)amino)-1H-pyrazolo[3,4-d]pyrimidin-1-yl)-3,4-dihydroxytetrahydrofuran-2-yl)methoxy)methyl)phosphonic acid], for which the IC50 is ≤ 500 nM.

For the compound `CC(C)CN(C[C@H]1O[C@@H](n2ncc3c(NCc4ccccc4Cl)nc(Cl)nc32)[C@H](O)[C@@H]1O)C(=O)CP(=O)(O)O` [Example 20, (2-((((2R,3S,4R,5R)-5-(6-Chloro-4-((2-chlorobenzyl)amino)-1H-pyrazolo[3,4-d]pyrimidin-1-yl)-3,4-dihydroxytetrahydrofuran-2-yl)methyl)(isobutyl)amino)-2-oxoethyl)phosphonic acid], the IC50 is > 1000 nM.

On to `O=P(O)(O)COC[C@H]1O[C@@H](n2ncc3c(NC[C@H]4CCOC4)nc(Cl)nc32)[C@H](O)[C@@H]1O` [Example 45, ((((2R,3S,4R,5R)-5-(6-chloro-4-((((R)-tetrahydrofuran-3-yl)methyl)amino)-1H-pyrazolo[3,4-d]pyrimidin-1-yl)-3,4-dihydroxytetrahydrofuran-2-yl)methoxy)methyl)phosphonic acid], for which the IC50 was ≤ 500 nM.

On to `CC(=O)N(c1nc(Cl)nc2c1cnn2[C@@H]1O[C@H](COCP(=O)(O)O)[C@@H](O)[C@H]1O)C1CCCC1` [Example 99, ((((2R,3S,4R,5R)-5-(6-Chloro-4-(N-cyclopentylacetamido)-1H-pyrazolo[3,4-d]pyrimidin-1-yl)-3,4-dihydroxytetrahydrofuran-2-yl)methoxy)methyl)phosphonic acid], for which the IC50 was ≤ 500 nM.

With `O=P(O)(O)COC[C@H]1O[C@@H](n2ncc3c(NCc4cccc5ccccc45)nc(Cl)nc32)[C@H](O)[C@@H]1O` [Example 49, ((((2R,3S,4R,5R)-5-(6-chloro-4-((naphthalen-1-ylmethyl)amino)-1H-pyrazolo[3,4-d]pyrimidin-1-yl)-3,4-dihydroxytetrahydrofuran-2-yl)methoxy)methyl)phosphonic acid], the IC50 was ≤ 500 nM.

As to `O=P(O)(O)CS(=O)(=O)C[C@H]1O[C@@H](n2ncc3c(NC4Cc5ccccc5C4)nc(Cl)nc32)[C@H](O)[C@@H]1O` [Example 126, (((((2S,3S,4R,5R)-5-(6-chloro-4-((2,3-dihydro-1H-inden-2-yl)amino)-1H-pyrazolo[3,4-d]pyrimidin-1-yl)-3,4-dihydroxytetrahydrofuran-2-yl)methyl)sulfonyl)methyl)phosphonic acid], the IC50 is ≤ 500 nM.

With `O=P(O)(O)CS(=O)(=O)C[C@H]1O[C@@H](n2nnc3c(NCc4ccccc4Cl)nc(Cl)nc32)[C@H](O)[C@@H]1O` [Example 118, (((((2S,3S,4R,5R)-5-(5-chloro-7-((2-chlorobenzyl)amino)-3H[1,2,3]triazolo[4,5-d]pyrimidin-3-yl)-3,4-dihydroxytetrahydrofuran-2-yl)methyl)sulfonyl)methyl)phosphonic acid], the IC50 is ≤ 500 nM.

As to `O=P(O)(O)CS(=O)(=O)C[C@H]1O[C@@H](n2nnc3c(N[C@H]4CCc5ccccc54)nc(Cl)nc32)[C@H](O)[C@@H]1O` [Example 130, (((((2S,3S,4R,5R)-5-(5-chloro-7-(((S)-2,3-dihydro-1H-inden-1-yl)amino)-3H-[1,2,3]triazolo[4,5-d]pyrimidin-3-yl)-3,4-dihydroxytetrahydrofuran-2-yl)methyl)sulfonyl)methyl)phosphonic acid], the IC50 is ≤ 500 nM.

`CN(c1nc(Cl)nc2c1nnn2[C@@H]1O[C@H](COCP(=O)(O)O)[C@@H](O)[C@H]1O)[C@H]1CCc2ccccc21` [Example 26, ((((2R,3S,4R,5R)-5-(5-chloro-7-(((S)-2,3-dihydro-1H-inden-1-yl)(methyl)amino)-3H-[1,2,3]triazolo[4,5-d]pyrimidin-3-yl)-3,4-dihydroxytetrahydrofuran-2-yl)methoxy)methyl)phosphonic acid]: the IC50 fell in the range of 500 to 1000 nM.

As for `CN(C[C@H]1O[C@@H](n2ncc3c(NCc4ccccc4Cl)nc(Cl)nc32)[C@H](O)[C@@H]1O)C(=O)CP(=O)(O)O` [Example 9, (2-((((2R,3S,4R,5R)-5-(6-chloro-4-((2-chlorobenzyl)amino)-1H-pyrazolo[3,4-d]pyrimidin-1-yl)-3,4-dihydroxytetrahydrofuran-2-yl)methyl)(methyl)amino)-2-oxoethyl)phosphonic acid], the IC50 was ≤ 500 nM.

For `CC(C)COc1nc(NCc2cccc(Cl)c2)c2cnn([C@@H]3O[C@H](COCP(=O)(O)O)[C@@H](O)[C@H]3O)c2n1` [Example 54, ((((2R,3S,4R,5R)-5-(4-((3-chlorobenzyl)amino)-6-isobutoxy-1H-pyrazolo[3,4-d]pyrimidin-1-yl)-3,4-dihydroxytetrahydrofuran-2-yl)methoxy)methyl)phosphonic acid], the IC50 is > 1000 nM.

Regarding `O=P(O)(O)CS(=O)(=O)C[C@H]1O[C@@H](n2ncc3c(NCc4ccc(Cl)cc4)nc(Cl)nc32)[C@H](O)[C@@H]1O` [Example 127, (((((2S,3S,4R,5R)-5-(6-chloro-4-((4-chlorobenzyl)amino)-1H-pyrazolo[3,4-d]pyrimidin-1-yl)-3,4-dihydroxytetrahydrofuran-2-yl)methyl)sulfonyl)methyl)phosphonic acid], the IC50 is ≤ 500 nM.

In the case of `O=P(O)(O)CS(=O)(=O)C[C@H]1O[C@@H](n2nnc3c(NCc4ccc(F)cc4)nc(Cl)nc32)[C@H](O)[C@@H]1O` [Example 119], the IC50 is ≤ 500 nM.

Turning to `O=P(O)(O)CS(=O)(=O)C[C@H]1O[C@@H](n2ncc3c(NCc4ccc(F)cc4)nc(Cl)nc32)[C@H](O)[C@@H]1O` [Example 117, (((((2S,3S,4R,5R)-5-(6-chloro-4-((4-fluorobenzyl)amino)-1H-pyrazolo[3,4-d]pyrimidin-1-yl)-3,4-dihydroxytetrahydrofuran-2-yl)methyl)sulfonyl)methyl)phosphonic acid], the IC50 was ≤ 500 nM.

For the compound `O=P(O)(O)COC[C@H]1O[C@@H](n2ncc3c(NC[C@@H]4CCCO4)nc(Cl)nc32)[C@H](O)[C@@H]1O` [Example 69, ((((2R,3S,4R,5R)-5-(6-chloro-4-((((S)-tetrahydrofuran-2-yl)methyl)amino)-1H-pyrazolo[3,4-d]pyrimidin-1-yl)-3,4-dihydroxytetrahydrofuran-2-yl)methoxy)methyl)phosphonic acid], the IC50 is ≤ 500 nM.

Take `O=P(O)(O)COC[C@H]1O[C@@H](n2ncc3c(N[C@@H]4CCOC4)nc(Cl)nc32)[C@H](O)[C@@H]1O` [Example 80, ((((2R,3S,4R,5R)-5-(6-chloro-4-(((R)-tetrahydrofuran-3-yl)amino)-1H-pyrazolo[3,4-d]pyrimidin-1-yl)-3,4-dihydroxytetrahydrofuran-2-yl)methoxy)methyl)phosphonic acid]: the IC50 was ≤ 500 nM.

For `O=P(O)(O)CS(=O)(=O)C[C@H]1O[C@@H](n2ncc3c(NC4CCCC4)nc(Cl)nc32)[C@H](O)[C@@H]1O` [Example 66, (((((2S,3S,4R,5R)-5-(6-chloro-4-(cyclopentylamino)-1H-pyrazolo[3,4-d]pyrimidin-1-yl)-3,4-dihydroxytetrahydrofuran-2-yl)methyl)sulfonyl)methyl)phosphonic acid], the IC50 was ≤ 500 nM.

As for `C[C@H]1CCC[C@H]1Nc1nc(Cl)nc2c1cnn2[C@@H]1O[C@H](COCP(=O)(O)O)[C@@H](O)[C@H]1O` [Example 105, ((((2R,3S,4R,5R)-5-(6-chloro-4-(((1R,2S)-2-methylcyclopentyl)amino)-1H-pyrazolo[3,4-d]pyrimidin-1-yl)-3,4-dihydroxytetrahydrofuran-2-yl)methoxy)methyl)phosphonic acid], the IC50 is ≤ 500 nM.

`O=C(CP(=O)(O)O)N(Cc1ccccc1)C[C@H]1O[C@@H](n2ncc3c(NCc4ccccc4Cl)nc(Cl)nc32)[C@H](O)[C@@H]1O` [Example 28, (2-(benzyl(((2R,3S,4R,5R)-5-(6-chloro-4-((2-chlorobenzyl)amino)-1H-pyrazolo[3,4-d]pyrimidin-1-yl)-3,4-dihydroxytetrahydrofuran-2-yl)methyl)amino)-2-oxoethyl)phosphonic acid]: the IC50 was > 1000 nM.

In the case of `CC1CCCC1Nc1nc(Cl)nc2c1cnn2[C@@H]1O[C@H](CS(=O)(=O)CP(=O)(O)O)[C@@H](O)[C@H]1O` (stereo partly drawn) [Example 128, (((((2S,3S,4R,5R)-5-(6-chloro-4-((2-methylcyclopentyl)amino)-1H-pyrazolo[3,4-d]pyrimidin-1-yl)-3,4-dihydroxytetrahydrofuran-2-yl)methyl)sulfonyl)methyl)phosphonic acid], the IC50 was ≤ 500 nM.
